Results taken from article PMC6471532, “Drug Transport across Porcine Intestine Using an Ussing Chamber System: Regional Differences and the Effect of P-Glycoprotein and CYP3A4 Activity on Drug Absorption” (Pharmaceutics, 2019).
≈ marks a conversion by molar mass, not a printed value.

Tests used:
[1] = system: human intestine; settings: Ussing chamber; cited from earlier work
[2] = Segmental drug permeation across porcine duodenum, jejunum, ileum and colon, Ussing chamber; type: in vitro ADME, pig; settings: female, Swiss noble, pig, 100 µM in KBR
[3] = system: porcine duodenum, jejunum, ileum and colon; experiment: as above; type: in vitro ADME, pig; settings: KBR, 2 h
[4] = Solubility in KBR, FaSSIF V2 and FeSSIF V2
[5] = Passive absorption across viable porcine intestine (jejunum) ex vivo, Ussing chamber, from KBR and biorelevant media; settings: female, Swiss noble, pig
[6] = system: viable porcine intestine (jejunum); experiment: as above; settings: for QDEP FaSSIF V2 / QDEP FeSSIF V2 / QDEP KBR: amount deposited in intestine at 2 h as % of donor; for QPERM FaSSIF V2 / QPERM FeSSIF V2 / QPERM KBR: amount permeated at 2 h as % of donor
[7] = system: human jejunum; settings: cited from earlier work; for Peff,human^a In Vivo: Loc-I-Gut, jejunal segment, cylindrical surface area; for Peff,human^b In Vivo: Loc-I-Gut with physiological estimates of the surface area for absorption
[8] = system: CYP3A4; settings: jejunum
[9] = source not given; cited from earlier work
[10] = system: CYP3A4; experiment: in vitro; settings: female, Swiss noble, pig, jejunum, 100 µM in KBR
[11] = biological target: T1, P-gp (Sus scrofa, UniProt K7GMM7); experiment: in vitro; settings: female, Swiss noble, pig, pH 7.4, with verapamil hydrochloride 100 µM in the donor compartment
[12] = biological target: T1, P-gp
[13] = KBR buffer, pH 7.4, aqueous buffer

T1 sequence (K7GMM7 1-1248): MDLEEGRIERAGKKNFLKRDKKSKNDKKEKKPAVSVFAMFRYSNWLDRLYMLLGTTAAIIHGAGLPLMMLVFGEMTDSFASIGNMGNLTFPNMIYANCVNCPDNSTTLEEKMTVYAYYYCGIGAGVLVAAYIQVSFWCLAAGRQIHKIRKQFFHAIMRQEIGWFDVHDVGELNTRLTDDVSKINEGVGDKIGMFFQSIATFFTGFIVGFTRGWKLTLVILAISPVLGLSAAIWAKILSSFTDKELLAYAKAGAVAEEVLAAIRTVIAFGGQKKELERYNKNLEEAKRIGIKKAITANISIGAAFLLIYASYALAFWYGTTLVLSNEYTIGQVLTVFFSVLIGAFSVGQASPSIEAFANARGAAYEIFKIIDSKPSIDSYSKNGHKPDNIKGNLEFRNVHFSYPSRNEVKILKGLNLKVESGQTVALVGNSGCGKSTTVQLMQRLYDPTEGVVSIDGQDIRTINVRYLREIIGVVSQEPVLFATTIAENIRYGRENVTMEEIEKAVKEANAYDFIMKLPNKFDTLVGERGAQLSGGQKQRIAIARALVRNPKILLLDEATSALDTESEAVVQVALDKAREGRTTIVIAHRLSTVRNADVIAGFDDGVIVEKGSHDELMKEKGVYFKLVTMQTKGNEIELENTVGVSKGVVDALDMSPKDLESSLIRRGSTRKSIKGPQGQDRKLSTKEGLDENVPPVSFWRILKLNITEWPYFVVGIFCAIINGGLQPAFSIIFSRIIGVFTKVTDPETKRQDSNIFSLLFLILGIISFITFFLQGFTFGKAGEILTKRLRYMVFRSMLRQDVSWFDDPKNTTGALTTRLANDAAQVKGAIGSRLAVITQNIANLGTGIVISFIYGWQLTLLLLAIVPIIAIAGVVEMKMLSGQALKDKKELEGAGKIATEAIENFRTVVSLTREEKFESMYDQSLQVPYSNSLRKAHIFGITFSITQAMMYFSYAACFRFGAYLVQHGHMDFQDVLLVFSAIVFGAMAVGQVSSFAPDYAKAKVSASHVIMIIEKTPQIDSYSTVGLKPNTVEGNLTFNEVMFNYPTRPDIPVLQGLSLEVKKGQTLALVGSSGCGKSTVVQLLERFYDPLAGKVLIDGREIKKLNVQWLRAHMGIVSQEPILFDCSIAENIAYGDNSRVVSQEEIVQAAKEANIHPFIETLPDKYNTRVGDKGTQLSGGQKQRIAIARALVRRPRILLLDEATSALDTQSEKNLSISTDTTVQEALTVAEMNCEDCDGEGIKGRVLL

COCCc1ccc(OCC(O)CNC(C)C)cc1 (racemic) [Metoprolol, (+/−)-Metoprolol]
Papp,human jejunum [1]: 15.9 ± 3.69 10^−6 cm/s | Papp at 120 min, 100 µM ([2]; pH 7.4, colon, read-out: Papp,pig Ex Vivo Colon): 17.6 ± 5.41 ×10⁻⁶ cm/s | Papp at 120 min, 100 µM ([2]; pH 7.4, duodenum, read-out: Papp,pig Ex Vivo Duodenum): 0.39 ± 0.16 ×10⁻⁶ cm/s | Papp at 120 min, 100 µM ([2]; pH 7.4, ileum, read-out: Papp,pig Ex Vivo Ileum): 6.87 ± 1.23 ×10⁻⁶ cm/s | Papp at 120 min, 100 µM ([2]; pH 7.4, jejunum, read-out: Papp,pig Ex Vivo Jejunum): 10.6 ± 2.92 ×10⁻⁶ cm/s | QDEP Colon ([3]; colon): 0.02 ± 0.00% | QPERM Colon ([3]; colon): 1.65 ± 0.87 (6) % | QDEP Duodenum ([3]; duodenum): 2.35 ± 0.25% | QPERM Duodenum ([3]; duodenum): 0.14 ± 0.08 (5) % | QDEP Ileum ([3]; ileum): 1.89 ± 0.67% | QPERM Ileum ([3]; ileum): 0.83 ± 0.09 (5) % | QPERM Jejunum ([3]; jejunum): 0.18 ± 0.05 (4) % | solubility ([4]; FaSSIF V2, pH 6.5, fassif): 43800 ± 15800 µg/mL (≈ 164 mM) | solubility ([4]; FeSSIF V2, pH 5.8, fessif): 381000 ± 33800 µg/mL (≈ 1420 mM) | solubility [4, 13]: 298000 ± 13900 µg/mL (≈ 1110 mM) | Papp at 120 min, 100 µM ([5]; pH 5.8): 5.79 ± 1.38 ×10⁻⁶ cm/s | Papp at 120 min, 100 µM ([5]; pH 6.5): 7.62 ± 1.41 ×10⁻⁶ cm/s | Papp at 120 min, 100 µM ([5]; pH 7.4): 10.6 ± 2.92 ×10⁻⁶ cm/s | QDEP FaSSIF V2 [6]: 0.12 ± 0.03% | QDEP FeSSIF V2 [6]: 0.22 ± 0.01% | QDEP KBR [6]: 0.28 ± 0.04% | QPERM FaSSIF V2 [6]: 0.89 ± 0.19% | QPERM FeSSIF V2 [6]: 0.74 ± 0.08% | QPERM KBR [6]: 0.18 ± 0.05%

NC(=O)N1c2ccccc2C=Cc2ccccc21 [Carbamazepine]
solubility ([4]; FaSSIF V2, pH 6.5, fassif): 320 ± 10 µg/mL (≈ 1.35 mM) | solubility ([4]; FeSSIF V2, pH 5.8, fessif): 730 ± 10 µg/mL (≈ 3.09 mM) | solubility [4, 13]: 200 ± 20 µg/mL (≈ 0.846 mM) | Papp at 120 min, 100 µM ([5]; pH 5.8): 4.26 ± 0.96 ×10⁻⁶ cm/s | Papp at 120 min, 100 µM ([5]; pH 6.5): 5.97 ± 0.52 ×10⁻⁶ cm/s | Papp at 120 min, 100 µM ([5]; pH 7.4): 7.81 ± 5.69 ×10⁻⁶ cm/s | QDEP FeSSIF V2 [6]: 3.45 ± 0.52% | QDEP KBR [6]: 1.44 ± 0.16% | QPERM FeSSIF V2 [6]: 0.58 ± 0.22% | QPERM KBR [6]: 2.39 ± 0.42% | Peff,human^a In Vivo [7]: 430 n.a. [31] 10^−6 cm/s

NS(=O)(=O)c1cc(C(=O)O)c(NCc2ccco2)cc1Cl [Furosemide]
QDEP FaSSIF V2 [6]: 2.22 ± 0.17% | QDEP FeSSIF V2 [6]: 1.52 ± 0.24% | Peff,human^b In Vivo [7]: 1–1.6 [77] 10^−6 cm/s | Peff,human^a In Vivo [7]: 5 n.a. [31] 10^−6 cm/s

NS(=O)(=O)c1cc2c(cc1Cl)NCNS2(=O)=O [Hydrochlorothiazide]
Papp at 120 min, 100 µM ([5]; pH 5.8): 1.37 ± 0.53 ×10⁻⁶ cm/s | Papp at 120 min, 100 µM ([5]; pH 6.5): 0.2 ± 0.25 ×10⁻⁶ cm/s | Papp at 120 min, 100 µM ([5]; pH 7.4): 2.88 ± 2.84 ×10⁻⁶ cm/s | QDEP FaSSIF V2 [6]: 0.22 ± 0.11% | QDEP FeSSIF V2 [6]: 0.74 ± 0.09% | QPERM FaSSIF V2 [6]: 0.11 ± 0.05% | QPERM FeSSIF V2 [6]: 0.23 ± 0.08% | Peff,human^a In Vivo [7]: 4 n.a. [31] 10^−6 cm/s

Cc1ncc2n1-c1ccc(Cl)cc1C(c1ccccc1F)=NC2 [Midazolam]
Effect of the presence of clotrimazole on Papp,pig ([8]; clotrimazole 100 µM): significantly increased | QDEP (+CLOTR) ([8]; with clotrimazole 100 µM): 7.49 ± 2.50% | QPERM (+CLOTR) ([8]; with clotrimazole 100 µM): 0.18 ± 0.08% | QDEP (−CLOTR) ([8]; without clotrimazole): 8.06 ± 1.33% | QPERM (−CLOTR) ([8]; without clotrimazole): 0.13 ± 0.09% | log P [9]: 3.89 | Papp at 120 min, 100 µM ([10]; pH 7.4, Papp,pig Ex Vivo (+CLOTR), with clotrimazole 100 µM): 0.46 ± 0.07 ×10⁻⁶ cm/s | Papp at 120 min, 100 µM ([10]; pH 7.4, Papp,pig Ex Vivo (−CLOTR), without clotrimazole): 0.183 ± 0.138 ×10⁻⁶ cm/s

COc1ccc2cc([C@H](C)C(=O)O)ccc2c1 [Naproxen]
QDEP FeSSIF V2 [6]: 4.74 ± 1.04% | Peff,human^b In Vivo [7]: 27–42 [77] 10^−6 cm/s | Peff,human^a In Vivo [7]: 850 n.a. [31] 10^−6 cm/s

CN1C(C(=O)Nc2ccccn2)=C(O)c2ccccc2S1(=O)=O [Piroxicam]
solubility ([4]; FaSSIF V2, pH 6.5, fassif): 290 ± 20 µg/mL (≈ 0.875 mM) | solubility ([4]; FeSSIF V2, pH 5.8, fessif): 60 µg/mL (≈ 0.181 mM) | solubility [4, 13]: 430 ± 20 µg/mL (≈ 1.3 mM) | Papp at 120 min, 100 µM ([5]; pH 5.8): 5.14 ± 0.78 ×10⁻⁶ cm/s | Papp at 120 min, 100 µM ([5]; pH 6.5): 10.8 ± 3.7 ×10⁻⁶ cm/s | Papp at 120 min, 100 µM ([5]; pH 7.4): 8.93 ± 2.03 ×10⁻⁶ cm/s | QDEP FaSSIF V2 [6]: 5.63 ± 0.26% | QDEP FeSSIF V2 [6]: 0.21 ± 0.04% | QDEP KBR [6]: 4.12 ± 0.15% | QPERM FaSSIF V2 [6]: 2.32 ± 0.79% | QPERM FeSSIF V2 [6]: 1.13 ± 0.46% | QPERM KBR [6]: 2.52 ± 0.70% | log P [9]: 3.06 | Peff,human^a In Vivo [7]: 665 n.a. [31] 10^−6 cm/s

CNC(=C[N+](=O)[O-])NCCSCc1ccc(CN(C)C)o1 [Ranitidine]
Papp at 120 min, 100 µM [11]: 4.92 ×10⁻⁶ cm/s | solubility ([4]; FaSSIF V2, pH 6.5, fassif): 15900 ± 1470 µg/mL (≈ 50.5 mM) | solubility ([4]; FeSSIF V2, pH 5.8, fessif): 808000 ± 70500 µg/mL (≈ 2570 mM) | solubility [4, 13]: 19600 ± 2780 µg/mL (≈ 62.5 mM) | Effect of the presence of verapamil on Papp,pig in the ileum ([12]; ileum, verapamil 100 µM, Student's t-test): significantly increased | QDEP Ileum (+VER) ([12]; ileum, with verapamil 100 µM): 7.91 ± 0.74% | QPERM Ileum (+VER) ([12]; ileum, with verapamil 100 µM): 0.25 ± 0.03 (6) % | QDEP Ileum (−VER) ([12]; ileum, without verapamil): 1.10 ± 0.59% | QPERM Ileum (−VER) ([12]; ileum, without verapamil): 0.55 ± 0.35 (4) % | Difference in Papp,pig across the jejunum in the presence or absence of verapamil ([12]; jejunum, verapamil 100 µM): No statistically significant difference | QDEP Jejunum (+VER) ([12]; jejunum, with verapamil 100 µM): 5.47 ± 0.75% | QPERM Jejunum (+VER) ([12]; jejunum, with verapamil 100 µM): 0.23 ± 0.15 (5) % | QDEP Jejunum (−VER) ([12]; jejunum, without verapamil): 1.32 ± 0.31% | QPERM Jejunum (−VER) ([12]; jejunum, without verapamil): 0.67 ± 0.12 (6) %

OCc1ncc2n1-c1ccc(Cl)cc1C(c1ccccc1F)=NC2 [α-hydroxymidazolam]
Amount of principal metabolite in the intestinal tissue in the presence of clotrimazole ([8]; parent drug 100 µM, clotrimazole 100 µM): significantly decreased
